{
  "source": "patent EP4755891A1",
  "about": "“ARF1 INHIBITOR AND USE THEREOF” (AOBIO PHARMACEUTICAL CO., LTD., priority 2023, dated 2025)",
  "key": {"[1]": {"test_system": "Mouse neuroblastoma N2A", "experiment": "Test for Golgi morphology abnormalities (GM130 immunofluorescence)", "format": "cell-based", "settings": "N2A cells; FIG. 4", "protocol": "GCA, a known Arf1 inhibitor, was used as a positive control.\nMouse neuroblastoma N2A (N2a, ATCC®CCL-131™) was cultured, treated, and subjected to immunofluorescence staining as previously reported (Wang et al., 2021)."}, "[2]": {"test_system": "CCL5", "experiment": "Upregulation of chemokine CCL5 expression (quantitative RT-PCR)", "format": "cell-based, Murine", "settings": "CT26 cells; FIG. 5", "protocol": "In this example, the upregulation of chemokine CCL5 expression induced by the treatment of Compounds 3 and 9 synthesized in the above preparation examples was tested. Quantitative RT-PCR was used to measure the expression level of chemokine CCL5 in CT26 cells treated with DMSO, Compound 3, or Compound 9."}, "[3]": {"test_system": "Drosophila orthotopic tumors", "experiment": "Inhibition of orthotopic tumor growth in Drosophila", "format": "in vivo", "settings": "5 µM in food, 4 days; Ras^V12-PMML clones; FIG. 7", "protocol": "In this example, the inhibitory effects of Compounds 3 and 9 synthesized in the above preparation examples on the growth of Drosophila orthotopic tumors were tested. As previously described, renal stem cell tumor clusters were induced by expressing Ras in Drosophila renal stem cell (Ras^V12-PMML) clones (Singh et al., 2016). The Drosophila carrying Ras^V12-PMML clones were cultured with normal food at room temperature for 4 days to allow tumor growth. They were then switched to food containing the indicated drugs for an additional 4 days, followed by feeding the Drosophila carrying Ras^V12-PMML with normal food containing DMSO or 5 µM Compound 3 or Compound 9. In the indicated groups, the number of esg>GFP + tumor cells per 5×10^3 µm^2 area was quantified to characterize tumor size."}, "[4]": {"test_system": "B16-F10 melanoma", "experiment": "Inhibition of B16-F10 melanoma in C57B/6 mice", "format": "in vivo", "settings": "5 mg/kg, oral, two consecutive weeks", "protocol": "In this example, the inhibitory effect of Compound 9 synthesized in the above preparation example on melanoma tumor growth was tested.\nMurine B16-F10 cells were inoculated at a dose of 5×10^5 cells per mouse into the left abdomen of 6-week-old male mice. Approximately 7 days later, the mice were treated orally with ddH2O or the novel Arf1 inhibitor for two consecutive weeks. The mice were randomly divided into three groups: the control group, the Compound 9 treatment group, and the DU102 treatment group. The mice were administered ddH2O, 5 mg/kg of Compound 9 (dissolved in ddH2O), or 5 mg/kg of DU102 (dissolved in a solvent composed of 5% DMSO + 95% corn oil, as a positive control) for two consecutive weeks. Tumor diameters were measured every 2-3 days using a digital caliper (ULINE, Cat^# H-7352), and the tumor volume was calculated using the formula ½ × longitudinal diameter (length) × maximum transverse diameter (width). When the maximum tumor volume reached 2000 mm^3, the mice were euthanized."}, "[5]": {"experiment": "Plasma stability, mouse plasma", "format": "in vitro ADME", "settings": "2.0 µM, 37°C", "protocol": "(§1) At 37°C, 2.0 µM of the compound was co-incubated with plasma samples from five species (mouse, rat, dog, cynomolgus monkey, human) for 120 minutes. The concentration of the compound in the samples was detected by the liquid chromatography-tandem mass spectrometry (LC-MS/MS) method, and the half-life (T1/2) was calculated."}, "[6]": {"experiment": "Plasma stability, dog plasma", "format": "in vitro ADME", "settings": "2.0 µM, 37°C", "protocol": "as §1"}, "[7]": {"experiment": "Plasma stability, human plasma", "format": "in vitro ADME", "settings": "2.0 µM, 37°C", "protocol": "as §1"}, "[8]": {"experiment": "Permeability in Caco-2 cells", "format": "in vitro ADME", "settings": "human, Caco-2, pH 7.4, 2.00 µM", "protocol": "(§2) The permeability of Compound 9 was evaluated using Caco-2 cells. The transport buffer used in this study was HBSS with 10.0 mM HEPES, pH 7.40±0.05. The test concentration was 2.00 µM, and a bidirectional test was performed on the test compound. Digoxin was repeatedly tested bidirectionally at 10.0 µM, while nadolol and metoprolol were repeatedly tested in the A-B direction at 2.00 µM. The final DMSO concentration was adjusted to less than 1%. The mixture was incubated at 37.0°C, 5% CO2, saturated humidity, without shaking in a CO2 incubator for 2 hours. All samples were mixed with acetonitrile containing internal standards and centrifuged at 3220 × g for 10 mins. The concentrations of the test compound and reference compound in the initial solution, donor solution, and acceptor solution were determined by the LC-MS/MS, using the analyte/internal standard peak area ratio."}, "[9]": {"test_system": "Caco-2 cells", "experiment": "Permeability in Caco-2 cells", "format": "in vitro ADME", "settings": "Caco-2, conclusion in words", "protocol": "as §2"}, "[10]": {"experiment": "Pharmacokinetic study in SD rats", "format": "in vivo", "protocol": "In this experiment, six male SD rats were divided into two groups based on similar body weight. These rats were administered Compound 9 via single intravenous injection and oral gavage, respectively. The intravenous injection dose was 2 mg/kg, while the oral gavage dose was 10 mg/kg. The vehicle for both intravenous and oral administration was a clear solution of 5% DMSO + 5% PEG400 + 90% water. The concentration for intravenous injection was 0.4 mg/mL, and for oral gavage was 1 mg/mL. K2-EDTA was used as the anticoagulant. The blood sampling time points were all at: 0.083, 0.25, 0.5, 1, 3, 6, 12, and 24 hours.\nBlood samples of 0.02 mL were collected from the saphenous vein of all experimental animals, and the actual blood collection time was recorded. In this experiment, the deviation of the blood sampling time from the theoretical sampling time complied with the regulations (points within 1 hour after administration were within ±1 minute, and all others were within 5% of the theoretical time). After blood sample collection, the blood samples were immediately transferred to labeled centrifuge tubes containing K2-EDTA (0.5 M). The samples were then centrifuged (3000 g, 4°C, 15 minutes), and the plasma was collected. The plasma was transferred to a pre-cooled centrifuge tube, flash-frozen in dry ice, and stored in an ultra-low temperature freezer at -60°C or less until LC-MS/MS analysis was performed."}, "[11]": {"experiment": "Solubility in DMSO and H2O"}},
  "note": "“Also recorded” adds a separate entry of the source. Where two headings read alike, the source gives them in different places.",
  "data": [
    {"smiles": "Cc1csc2ncnc(Nc3ccc4c(c3)ncn4C)c12", "note": "[Compound 9, 5-Methyl-N-(1-methyl-1H-benzo[d]imidazol-5-yl)thieno[2,3-d]pyrimidin-4-amine]", "values": [
      {"measurement": "Golgi morphology (Golgi apparatus defects, distribution of Golgi marker GM130)", "setting": "[1]", "result": "induce Golgi apparatus defects; also recorded: effectively induce morphological changes in the Golgi apparatus"},
      {"measurement": "expression of the chemokine CCL5", "setting": "[2]", "result": "effectively promote the expression"},
      {"measurement": "orthotopic tumor growth in Drosophila", "setting": "[3]", "result": "effectively inhibit orthotopic tumor growth"},
      {"measurement": "B16-F10 melanoma growth", "setting": "[4]; FIG. 8", "result": "effectively inhibit B16-F10 melanoma growth"},
      {"measurement": "size of murine melanoma tumors", "setting": "[4]; FIG. 8A", "result": "significantly inhibited the size of murine melanoma tumors"},
      {"measurement": "weight of murine melanoma tumors", "setting": "[4]; FIG. 8B", "result": "significantly reduced the weight of murine melanoma tumors"},
      {"measurement": "remaining amount in plasma", "setting": "[5]; time point 0 min", "result": 100.0, "unit": "%"},
      {"measurement": "remaining amount in plasma", "setting": "[5]; time point 10 min", "result": 99.3, "unit": "%"},
      {"measurement": "remaining amount in plasma", "setting": "[5]; time point 30 min", "result": 98.6, "unit": "%"},
      {"measurement": "remaining amount in plasma", "setting": "[5]; time point 60 min", "result": 104.1, "unit": "%"},
      {"measurement": "remaining amount in plasma", "setting": "[5]; time point 120 min", "result": 96.5, "unit": "%"},
      {"measurement": "remaining amount in plasma", "setting": "[6]; time point 0 min", "result": 100.0, "unit": "%"},
      {"measurement": "remaining amount in plasma", "setting": "[6]; time point 10 min", "result": 99.0, "unit": "%"},
      {"measurement": "remaining amount in plasma", "setting": "[6]; time point 30 min", "result": 94.0, "unit": "%"},
      {"measurement": "remaining amount in plasma", "setting": "[6]; time point 60 min", "result": 98.8, "unit": "%"},
      {"measurement": "remaining amount in plasma", "setting": "[6]; time point 120 min", "result": 86.0, "unit": "%"},
      {"measurement": "remaining amount in plasma", "setting": "[7]; time point 0 min", "result": 100.0, "unit": "%"},
      {"measurement": "remaining amount in plasma", "setting": "[7]; time point 10 min", "result": 99.8, "unit": "%"},
      {"measurement": "remaining amount in plasma", "setting": "[7]; time point 30 min", "result": 108.9, "unit": "%"},
      {"measurement": "remaining amount in plasma", "setting": "[7]; time point 60 min", "result": 113.3, "unit": "%"},
      {"measurement": "remaining amount in plasma", "setting": "[7]; time point 120 min", "result": 104.6, "unit": "%"},
      {"measurement": "Papp A→B at 2 h, 2 µM", "setting": "[8]; 2 hours, pH 7.40±0.05", "result": 29, "unit": "×10⁻⁶ cm/s"},
      {"measurement": "Papp B→A at 2 h, 2 µM", "setting": "[8]; 2 hours, pH 7.40±0.05", "result": 20.7, "unit": "×10⁻⁶ cm/s"},
      {"measurement": "efflux ratio at 2 h, 2 µM", "setting": "[8]; bidirectional, read-out: Efflux Ratio (ER)", "result": 0.714},
      {"measurement": "cellular permeability", "setting": "[9]", "result": "high cellular permeability"},
      {"measurement": "substrate of the efflux transporter P-gp", "setting": "[9]", "result": "unlikely to be a substrate of the efflux transporter P-gp"},
      {"measurement": "absorption in rats", "setting": "[10]; conclusion in words", "result": "rapidly absorbed"},
      {"measurement": "apparent volume of distribution", "setting": "[10]; conclusion in words", "result": "moderate apparent volume of distribution"},
      {"measurement": "oral bioavailability", "setting": "[10]; conclusion in words", "result": "high oral bioavailability"},
      {"measurement": "Vd", "setting": "[10]; rat, plasma, Intravenous Injection, 2 mg/kg, male SD rats, read-out: Apparent Volume of Distribution Vdss", "result": 0.647, "unit": "L/kg"},
      {"measurement": "clearance", "setting": "[10]; rat, plasma, Intravenous Injection, 2 mg/kg, male SD rats, read-out: Clearance Cl", "result": 39.8, "unit": "mL/min/kg"},
      {"measurement": "half-life", "setting": "[10]; rat, plasma, Intravenous Injection, 2 mg/kg, male SD rats, read-out: Half-Life T1/2 (converted)", "result": 11, "unit": "min"},
      {"measurement": "bioavailability", "setting": "[10]; rat, plasma, Oral Gavage, 10 mg/kg vs intravenous 2 mg/kg, male SD rats, read-out: Bioavailability F", "result": 164, "unit": "%"},
      {"measurement": "AUC(0-t)", "setting": "[10]; rat, plasma, Oral Gavage, 10 mg/kg, male SD rats, read-out: Exposure AUC0-last", "result": 6840, "unit": "ng·h/mL"},
      {"measurement": "half-life", "setting": "[10]; rat, plasma, Oral Gavage, 10 mg/kg, male SD rats, read-out: Half-life T1/2 (converted)", "result": 34.2, "unit": "min"},
      {"measurement": "Cmax", "setting": "[10]; rat, plasma, Oral Gavage, 10 mg/kg, male SD rats, read-out: Maximum Concentration Cmax", "result": 4770, "unit": "ng/mL"},
      {"measurement": "solubility in DMSO", "setting": "[11]; DMSO, FIG. 2A", "result": "soluble"},
      {"measurement": "solubility in H2O", "setting": "[11]; H2O, FIG. 2B", "result": "high solubility"}
    ]}
  ]
}
